Results taken from paper PMC3664642, “A Peptide against Soluble Guanylyl Cyclase α1: A New Approach to Treating Prostate Cancer” (PLoS ONE, 2013).
Entries after “also recorded” stand apart in the source; their conditions may differ.

Experiments:
LNCaP cells [1] = test: Dependence of cytotoxicity on NO signaling, LNCaP cells (MTT); assay type: cell-based; settings: for effect of C-PTIO on cytotoxicity of Peptide A-8R: Fig. S1D
Method: (§1) For proliferation, cells were grown in medium containing 2% FBS extracted with dextran-coated charcoal (DCC). 48 hours later, ethanol or 1 nM R1881 was added to the cells followed by peptide treatment. The MTT assay (Sigma) was used as before to determine cell number. For apoptosis, 5000 cells were seeded in 96-well plates and treated with Vehicle (DMSO), Peptide A-8R (25 µM), Etoposide (50 µM) (Sigma) at different time points. The Caspase (3/7) activity was measured using Apo-ONE Homogeneous Caspase-3/7 assay kit (Promega). PARP cleavage was also used to measure apoptosis, and is described below.
(§2) (A) Whole-cell extracts from LNCaP cells treated with Vehicle, Peptide A-8R, or C-8R were subjected to IP using an anti-sGCα1 or anti-sGCβ1 antibody and then probed by Western blotting for sGCα1 (Upper) or sGCβ1 (Lower). Input represents amount of sGCα1 or sGCβ1 found in extracts. (B) LNCaP cells grown in the absence or presence of 1 nM R1881 were treated with Vehicle, 20 µM Peptide A-8R, 20 µM C-8R, or 8-Br-cGMP and monitored for cGMP levels using the cGMP E1A kit (Enzo Life Sciences). (C) LNCaP cells grown in the absence or presence of 8-Br-cGMP were treated with Vehicle, Peptide A-8R, or ODQ and monitored for cell density using the MTT assay. (D) LNCaP cells were treated with Vehicle or different concentrations of Peptide A-8R and C-PTIO and monitored for cell density. Bar graphs represent averages of three independent experiments plus standard deviations. Asterisks indicate statistical significance (P<0.04). (TIF) Click here for additional data file.

LNCaP cells [2] = test: Proliferation/cytotoxicity, LNCaP cells (MTT); assay type: cell-based; settings: PI3K-AKT inhibitor; MTT; Fig. S3A; averages of three independent experiments
Method: LNCaP, C81, PC-3 and Cos cells were grown as previously described. CWR-22Rv1 cells were cultured in RMPI-1640 medium with 10% FBS and 50 µg/ml Gentamicin (Gibco). Control siRNA, sGCα1 siRNA and AKT siRNA (Dharmacon) at 50 nM final concentration was transfected into cells using Lipofectamine siMAX (Invitrogen).
as §1
(A) Four peptides were designed targeting sGCα1, with each peptide containing eight arginines at the C-terminus for membrane translocation. (B) LNCaP cells were grown in 10% serum under different concentrations of the four peptides, as shown. Cell number was measured after 0–4 days of incubation. Data points represent averages of three independent experiments plus standard deviations. Asterisks indicate statistical significance (P<0.0002) of Peptide A activity, relative to Vehicle.
Figure 2 Peptide A-8R interacts with sGCα1 in prostate cancer cells. (A) LNCaP cells were treated with 25 µM Biotin-labeled Peptide A-8R for 2 hrs and subjected to immunocytochemistry using anti-sGCα1 or anti-Biotin antibody to measure subcellular co-localization of endogenous sGCα1 and Peptide A-8R. DAPI was used to stain nuclei. (B) LNCaP cytosolic extracts were incubated with Peptide A-8R-Biotin and subjected to purification using streptavidin-agarose. This pull-down experiment was repeated with competing excess amount of unlabeled Peptide C-8R or Peptide A-8R. […] Co-purified Peptide A-8R-FITC was quantified by measuring fluorescence signal emission. […] Cell number was measured after 0–48 hrs of incubation. […]

tumor cell = settings: ref [16], [17]; cited from earlier work
Description: In view of the rapid cytotoxicity induced by Peptide A (data not shown), we examined the possibility that ROS was involved.

[3] = system: Caspase 3/7 activity in LNCaP cells; test: Caspase 3/7 assay, LNCaP cells; assay type: cell-based; settings: Peptide 10 µM, Etoposide 20 µM, 24 hrs, Fig. 5A
Method: as §1
Figure 5 Peptide A-8R induces apoptosis of prostate cancer cells. (A) LNCaP, (B) PC-3, or (C) Cos cells were treated with Vehicle, Peptide A-8R (10 µM), or Etoposide (20 µM) for 0–24 hrs and subjected to a Caspase assay to measure apoptosis. Bar graphs represent averages of three independent experiments plus standard deviations. All activities are relative to the first condition, and this activity was set to 1. Asterisks indicate statistical significance (P<0.005). (D) LNCaP cells were treated with Vehicle, Peptide C-8R, Peptide A-8R, or Etoposide (each drug at 50 µM) for 8 hrs and monitored for apoptosis by measuring PARP cleavage using Western blotting. Note that β-actin was used to control for protein loading.
Supplementary file pone.0064189.s005.tif: Figure S5 ROS generation is not induced by Peptide A-8R in PC-3 cells and Peptide C-8R in LNCaP cells. (A) PC-3 cells were treated with Vehicle or different concentrations of Peptide A-8R or Peptide C-8R, as shown, or (B) LNCaP cells were treated with Vehicle or different concentrations of Peptide A-8R or Peptide C-8R, or H2O2 and monitored for ROS generation after 0–30 (A) or 30 (B) min. (C) LNCaP cells were treated with Vehicle, Peptide C-8R (10 µM), Peptide A-8R (10 µM), or Etoposide (100 µM) for 0–8 hrs and subjected to a Caspase assay to measure apoptosis. Bar graphs represent averages of three independent experiments plus standard deviations. (C) All activities are relative to the first condition, and this activity was set to either 1. Asterisks indicate statistical significance (P<0.006) of all values compared to Vehicle (B) or to 0 hour (C). (TIF) Click here for additional data file.

sGC = test: cGMP levels in LNCaP cells (ELISA); assay type: cell-based; settings: 1 nM R1881 absent or present, 20 µM peptide, cGMP EIA kit, Fig. S1B
Method: as §2

C81 cells [4] = test: NAC rescue of proliferation of Peptide A-8R-treated cells (MTT); assay type: cell-based; settings: for NAC rescue of proliferation: C81, NAC 1 or 5 mM, 2 h pretreatment, 0–6 days
Method: as §1
Intracellular ROS levels were evaluated using the fluorescent probe 5-(and-6)-chloromethyl-2′,7′-dichlorodihydrofluorescein diacetate (CM-H2DCFDA) (Invitrogen). After treatments with Peptide A-8R, C81 cells were loaded with 20 µM CM-H2DCFDA and incubated at 37°C for 30 min in the dark. Cells were then washed with PBS and fluorescence was measured at the excitation and emission wavelengths of 490 and 535 nm, respectively, using a multi-well fluorescence plate reader. For NAC (N-acetyl cysteine) (Sigma) rescue experiment, cells were pretreated with 1 or 5 mM NAC for 2 hours before adding Peptide A-8R.
(§3) Figure 4 Peptide A-8R kills prostate cancer cells by mediating ROS generation. (A) C81 cells were treated with Vehicle or different µMolar concentrations of Peptide A-8R and without or with 0–5 mM NAC and monitored for ROS generation after 0–30 min as measured by fluorescence intensity (FI). Bar graphs represent averages of three independent experiments plus standard deviations. Note that asterisks on bar graphs found with NAC are compared to equivalent data without NAC. (B) C81 cells were treated with Vehicle or different concentrations of Peptide A-8R, as shown, and 0–5 mM NAC, as shown, and monitored for cell number after 0–6 days of incubation as measured by MTT assay. Data points represent averages of three independent experiments plus standard deviations. Asterisks indicate statistical significance (P<0.04). (C) C81 cells were treated with Vehicle or different concentrations of Peptide A-8R, as shown, and with or without 5 mM NAC, as shown, and monitored DNA damage after 1 hr incubation as measured by Comet assay.

DNA damage in C81 cells = test: Comet assay (DNA damage); assay type: cell-based; settings: 5 mM NAC, 2-hour pretreatment; Fig. 4C
Method: C81 cells were treated with Peptide A-8R for 1 hour, following a 2-hour pretreatment with 5 mM NAC or Vehicle, and trypsinized, and mixed with Comet LM-Agarose (CometAssay, […]) and transferred to slides. Electrophoresis and Sybr-Green staining was carried out according to manufacturer’s protocol.
as §3

C81 cells [5] = test: DAPI DNA staining, C81 cells; assay type: cell-based; settings: 5 mM NAC, 2 hrs, Fig. S6
Method: C81 cells were first treated with or without 5 mM NAC for 2 hrs and then Vehicle or different concentrations of Peptide A-8R, as shown, for 1 hr and stained with DAPI. Phase contrast images are shown. (TIF) Click here for additional data file.

SMILES: Nc1nc2c(nc(Br)n2[C@@H]2O[C@@H]3COP(=O)(O)O[C@H]3[C@H]2O)c(=O)[nH]1 [Peptide 8-Br-cGMP]
- effect of added agent on Vehicle- or Peptide A-8R-treated cells (cell density) (LNCaP cells [1]; MTT, Fig. S1C): had no effect on Vehicle- or Peptide A-8R-treated cells
- rescue of ODQ-treated cells (cell density) (LNCaP cells [1]; MTT, ODQ-treated, Fig. S1C): able to partially rescue cells treated with the sGC enzyme inhibitor ODQ

SMILES: O=c1cc(N2CCOCC2)oc2c(-c3ccccc3)cccc12 [LY294002, reference compound]
- LNCaP cell proliferation (LNCaP cells [2]): dramatically repressed LNCaP cell proliferation

SMILES: COc1cccc2c1C(=O)c1c(O)c3c(c(O)c1C2=O)C[C@@](O)(C(=O)CO)C[C@@H]3O[C@H]1C[C@H](N)[C@H](O)[C@H](C)O1 [doxorubicin]
- tumor cell death by elevating ROS (tumor cell): induce tumor cell death by elevating levels of reactive oxygen species

SMILES: N.N.[Cl][Pt][Cl] [cisplatin]
- tumor cell death by elevating ROS (tumor cell): induce tumor cell death by elevating levels of reactive oxygen species

SMILES: COc1cc([C@@H]2c3cc4c(cc3[C@@H](O[C@@H]3O[C@@H]5CO[C@@H](C)O[C@H]5[C@H](O)[C@H]3O)[C@H]3COC(=O)[C@H]23)OCO4)cc(OC)c1O [Etoposide, reference compound]
- Caspase 3/7 activity [3]: induced similar levels of Caspase activity as did Peptide A-8R, but only after 24 hrs of treatment

SMILES: C[C@]1(O)CC[C@H]2[C@@H]3CCC4=CC(=O)CCC4=C3C=C[C@@]21C [Peptide R1881, reference compound]
- cGMP levels (sGC): markedly elevated cGMP levels

SMILES: CC1(C)N([O])C(c2ccc(C(=O)O)cc2)=[N+]([O-])C1(C)C [C-PTIO]
- effect of C-PTIO on cytotoxicity of Peptide A-8R (LNCaP cells [1]; Peptide A-8R at 50 µM): interestingly not 50 µM
- effect of C-PTIO on cytotoxicity of Peptide A-8R (LNCaP cells [1]; Peptide A-8R at 10 and 25 µM, P<0.04): enhanced rather than relieved the cytotoxicity of Peptide A-8R at 10 and 25 µM

SMILES: CC(=O)N[C@@H](CS)C(=O)O [NAC, N-acetyl cysteine]
- NAC rescue of proliferation (C81 cells [4]; 10 µM Peptide A-8R, Fig. 4B (P<0.04)): able to completely rescue the proliferation
- NAC rescue of proliferation (C81 cells [4]; 25 µM Peptide A-8R, Fig. 4B (P<0.04)): nearly completely
- NAC rescue of proliferation (C81 cells [4]; 50 µM Peptide A-8R, Fig. 4B): failed to significantly rescue the growth; also recorded: only marginally rescued
- NAC rescue (discussion) (C81 cells [4]; 10 and 25 µM Peptide A-8R): strong rescue
- inhibition of Peptide A-8R-induced DNA damage (DNA damage in C81 cells): completely blocked
- effect of NAC on cells treated with 50 µM Peptide A-8R (DAPI) (C81 cells [5]): had no effect
